Experimental data: ChEMBL document CHEMBL5131437, “Development of novel 2-aminoalkyl-6-(2-hydroxyphenyl)pyridazin-3(2H)-one derivatives as balanced multifunctional agents against Alzheimer's disease” (Eur J Med Chem, 2022)
pIC50: −log10 of the molar value.

Experiments:
[1] = target: Amyloid-beta precursor protein (Homo sapiens) (UniProt P05067); assay: Inhibition of self-induced amyloid beta (1 to 42) (unknown origin) aggregation by Thioflavin T based fluorometric assay relative to control; set-up: concentration or dose not given beside the values; details: concentration not given here
Sequence of Amyloid-beta precursor protein (Homo sapiens) (P05067 whole entry): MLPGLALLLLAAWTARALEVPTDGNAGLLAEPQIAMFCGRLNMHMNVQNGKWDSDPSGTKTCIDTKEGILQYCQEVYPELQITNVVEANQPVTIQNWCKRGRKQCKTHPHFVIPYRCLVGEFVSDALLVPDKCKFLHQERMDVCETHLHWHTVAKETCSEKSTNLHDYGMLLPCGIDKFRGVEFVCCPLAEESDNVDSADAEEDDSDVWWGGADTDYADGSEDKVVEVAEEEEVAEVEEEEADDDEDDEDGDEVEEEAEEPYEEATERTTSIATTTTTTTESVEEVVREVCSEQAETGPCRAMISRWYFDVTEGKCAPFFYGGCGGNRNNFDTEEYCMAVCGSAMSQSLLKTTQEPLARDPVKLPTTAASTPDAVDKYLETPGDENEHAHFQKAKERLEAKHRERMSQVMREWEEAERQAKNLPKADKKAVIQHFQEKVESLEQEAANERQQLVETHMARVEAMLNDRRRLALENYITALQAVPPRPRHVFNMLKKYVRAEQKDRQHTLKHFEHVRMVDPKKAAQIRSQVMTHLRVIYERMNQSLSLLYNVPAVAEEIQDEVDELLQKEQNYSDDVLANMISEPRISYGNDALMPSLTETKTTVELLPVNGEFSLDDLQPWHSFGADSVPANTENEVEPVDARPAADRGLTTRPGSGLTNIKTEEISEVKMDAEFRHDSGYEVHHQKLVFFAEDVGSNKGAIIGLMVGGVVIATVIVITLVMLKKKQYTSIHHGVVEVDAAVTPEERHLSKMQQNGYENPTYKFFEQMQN

Acetylcholinesterase = Acetylcholinesterase (Electrophorus electricus, UniProt O42275); assay: Inhibition of electric eel AChE by Ellman's method; details: for pIC50: read-out: IC50; for IC50: read-out: pIC50 (converted)
Sequence of Acetylcholinesterase (O42275 whole entry): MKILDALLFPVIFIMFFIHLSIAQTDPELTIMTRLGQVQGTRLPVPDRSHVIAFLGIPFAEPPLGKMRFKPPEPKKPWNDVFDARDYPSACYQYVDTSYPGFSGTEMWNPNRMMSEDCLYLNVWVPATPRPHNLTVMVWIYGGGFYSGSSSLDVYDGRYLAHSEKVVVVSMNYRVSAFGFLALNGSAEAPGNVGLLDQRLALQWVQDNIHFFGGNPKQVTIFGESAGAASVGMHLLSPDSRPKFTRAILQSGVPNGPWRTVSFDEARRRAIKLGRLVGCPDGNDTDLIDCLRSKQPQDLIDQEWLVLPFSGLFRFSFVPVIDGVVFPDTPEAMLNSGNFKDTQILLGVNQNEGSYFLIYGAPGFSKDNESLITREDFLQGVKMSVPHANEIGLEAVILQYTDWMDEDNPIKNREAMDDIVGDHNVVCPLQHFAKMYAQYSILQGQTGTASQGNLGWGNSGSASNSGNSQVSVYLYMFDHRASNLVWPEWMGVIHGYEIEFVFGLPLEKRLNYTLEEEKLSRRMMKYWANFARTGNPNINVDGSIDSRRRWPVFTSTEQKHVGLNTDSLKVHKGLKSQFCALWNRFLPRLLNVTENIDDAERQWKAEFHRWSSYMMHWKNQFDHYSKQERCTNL

[2] = Antioxidant activity of compound assessed as trolox equivalent of ORAC radical scavenging activity by ORAC-FL assay; assay type: functional
[3] = target: Amyloid-beta precursor protein (Homo sapiens) (UniProt P05067); assay: Inhibition of self-induced amyloid beta (1 to 42) (unknown origin) disaggregation by Thioflavin T based fluorometric assay relative to control; set-up: concentration or dose not given beside the values; details: concentration not given here
[4] = system: Butyrylcholinesterase (Rattus norvegicus); assay: Inhibition of rat serum BuChE at 10 uM by Ellman's method relative to control

| Compound | inhibition [1] [%] | pIC50 (Acetylcholinesterase) | Activity [2] | inhibition [3] [%] | inhibition [4] [%] | IC50 (Acetylcholinesterase) [nM] |
| --- | --- | --- | --- | --- | --- | --- |
| CCN(CCCCCCn1nc(-c2ccc(N(C)C)cc2O)ccc1=O)Cc1ccccc1N(C)C | 71.3 | 5.67 | 2.49 | 67.8 | 17.6 |  |
| CCN(CCCCCCn1nc(-c2ccccc2O)ccc1=O)Cc1ccccc1 | 15.4 | 6.04 | 2.96 |  | 25.7 |  |
| CCN(CCCCCCn1nc(-c2cc([N+](=O)[O-])ccc2O)ccc1=O)Cc1ccccc1N(C)C |  | 6.34 | 0.42 |  | 28.3 |  |
| O=c1ccc(-c2ccccc2O)nn1CCCCCCN1CCCCC1 |  | 5.34 | 3.34 |  | 25.6 |  |
| CCN(CCCCCCn1nc(-c2cc(Cl)ccc2O)ccc1=O)Cc1ccccc1OC |  | 5.03 | 0.96 |  | 24.3 |  |
| CCN(CCCCCCn1nc(-c2ccc(OC)cc2O)ccc1=O)Cc1ccccc1N(C)C | 34.3 | 5.80 | 3.55 |  | 19.2 |  |
| CCN(CCCCCCn1nc(-c2ccccc2O)ccc1=O)Cc1ccc(F)cc1 |  | 5.07 | 2.26 |  | 9.3 |  |
| CCN(CCCCCCn1nc(-c2cc(Br)ccc2O)ccc1=O)Cc1ccccc1OC |  | 6.06 | 1.53 |  | 34.2 |  |
| CCN(CCCCCCOc1ccc(-c2cc(N(C)C)ccc2O)nn1)Cc1ccccc1N(C)C | 95.2 | 5.66 | 2.28 | 85.4 | 16.6 |  |
| CCN(CCCCCCn1nc(-c2cc([N+](=O)[O-])ccc2O)ccc1=O)Cc1ccccc1OC |  | 5.94 | 0.27 |  | 31.8 |  |
| O=c1ccc(-c2ccccc2O)n[nH]1 |  |  | 2.15 |  | < 5 |  |
| CCN(CCCCCCn1nc(-c2cc(N(C)C)ccc2O)ccc1=O)Cc1ccccc1OC | 93.9 | 5.92 | 2.17 | 79.2 | 16.7 |  |
| CCN(CC)CCCCCCn1nc(-c2ccccc2O)ccc1=O | 33.8 | 5.61 | 2.69 |  | 13.4 |  |
| CCN(CCCCCCOc1ccc(-c2ccccc2O)nn1)Cc1ccc(F)cc1 |  | 4.31 | 0.61 |  | < 5 |  |
| O=c1ccc(-c2ccccc2O)nn1CCCCCCN1CCCC1 |  | 5.80 | 2.98 |  | 15.7 |  |
| CCN(CCCCCCn1nc(-c2cc(C)ccc2O)ccc1=O)Cc1ccccc1OC |  | 5.78 | 1.38 |  | 38.9 |  |
| CCN(CCCCCCn1nc(-c2cc(OC)ccc2O)ccc1=O)Cc1cccc(F)c1 |  | 5.64 | 1.95 |  | 17.4 |  |
| CCN(CCCCCCn1nc(-c2ccccc2O)ccc1=O)Cc1ccccc1F | 27.4 | 5.99 | 2.43 |  | 15.7 |  |
| CCN(CCCCCCOc1ccc(-c2cc(N(C)C)ccc2O)nn1)Cc1cccc(F)c1 | 96.3 | 5.64 | 1.29 | 85.1 | 19.3 |  |
| CCN(CCCCCCn1nc(-c2cc(Br)ccc2O)ccc1=O)Cc1ccccc1N(C)C |  | 6.60 | 1.48 |  | 32.2 |  |
| CCN(CCCCCCn1nc(-c2cc(NC(C)=O)ccc2O)ccc1=O)Cc1cccc(F)c1 | 38.8 | 7.16 | 2.1 |  | 17.7 |  |
| CCN(CCCCCCn1nc(-c2cc(Cl)ccc2O)ccc1=O)Cc1cccc(F)c1 |  | 5.84 | 0.84 |  | 15.8 |  |
| CCN(CCCCCCn1nc(-c2cc(N(C)C)ccc2O)ccc1=O)Cc1cccc(F)c1 | 97 | 6.46 | 2.34 | 80.7 | 15 |  |

| Compound | inhibition [1] [%] | pIC50 (Acetylcholinesterase) | Activity [2] | inhibition [3] [%] | inhibition [4] [%] | IC50 (Acetylcholinesterase) [nM] |
| --- | --- | --- | --- | --- | --- | --- |
| CCN(CCCCCCn1nc(-c2ccccc2O)ccc1=O)Cc1ccc(N(C)C)cc1 | 51.9 | 5.04 | 3.63 |  | < 5 |  |
| CCN(CCCCCCn1nc(-c2ccc(F)cc2O)ccc1=O)Cc1ccccc1N(C)C |  | 5.93 | 1.09 |  | 27.3 |  |
| CCN(CCCCCCn1nc(-c2cc(C)ccc2O)ccc1=O)Cc1cccc(F)c1 |  | 6.05 | 1.14 |  | 29.2 |  |
| CCN(CCCCCCn1nc(-c2cc(F)ccc2O)ccc1=O)Cc1ccccc1N(C)C | 30.3 | 6.80 | 0.82 | 26.1 | 28.8 |  |
| CCN(CCCCCCCCn1nc(-c2cc(N(C)C)ccc2O)ccc1=O)Cc1ccccc1N(C)C | 97.4 | 4.78 | 3.31 | 86.9 | 32.1 |  |
| CCN(CCCCCCn1nc(-c2cc(F)ccc2O)ccc1=O)Cc1ccccc1OC | 30.2 | 6.24 | 0.84 | 25.2 | 31.8 |  |
| CCN(CCCCCCn1nc(-c2cccc(N(C)C)c2O)ccc1=O)Cc1ccccc1N(C)C | 57.9 | 5.32 | 2.03 | 53 | 18.8 |  |
| CN(CCCCCCn1nc(-c2ccccc2O)ccc1=O)Cc1ccccc1 |  | 6.03 | 2.78 |  | 28.6 |  |
| CCN(CCCCCCn1nc(-c2cc([N+](=O)[O-])ccc2O)ccc1=O)Cc1cccc(F)c1 |  | 6.00 | 0.29 |  | 33.3 |  |
| CCN(CCCCCCn1nc(-c2cc(C)ccc2O)ccc1=O)Cc1ccccc1N(C)C |  | 6.55 | 1.26 |  | 23.9 |  |
| CCN(CCCCCCn1nc(-c2cc(F)ccc2O)ccc1=O)Cc1cccc(F)c1 | 33.8 | 6.60 | 0.75 |  | 33 |  |
| CCN(CCCCCCn1nc(-c2ccccc2O)ccc1=O)Cc1ccccc1OC | 36.1 | 6.13 | 2.76 |  | 24.5 | 372 |
| CCN(CCCCCCn1nc(-c2ccccc2O)ccc1=O)Cc1ccccc1Cl |  | 5.64 | 1.72 |  | 19.6 |  |
| CCN(CCCCCCn1nc(-c2cc(Br)ccc2O)ccc1=O)Cc1cccc(F)c1 |  | 5.59 | 0.98 |  | 12.9 |  |
| CCN(CCCCCCn1nc(-c2cc(OC)ccc2O)ccc1=O)Cc1ccccc1OC |  | 6.20 | 1.96 |  | 27.3 |  |
| COc1ccccc1CN(C)CCCCCCn1nc(-c2ccccc2O)ccc1=O | 30.9 | 5.97 | 2.89 |  | 22.6 | 85.1 |
| CCN(CCCCCCn1nc(-c2ccccc2O)ccc1=O)Cc1ccccc1C |  | 5.60 | 2.54 |  | 13.6 |  |
| CCN(CCCCCCn1nc(-c2ccccc2O)ccc1=O)Cc1cccc(Cl)c1 |  | 5.53 | 1.56 |  | 17.6 |  |
| CCN(CCCCCCOc1ccc(-c2ccccc2O)nn1)Cc1cccc(F)c1 | 26.4 | 5.37 | 0.54 |  | 18.5 |  |
| CCN(CCCCCCCCn1nc(-c2cc(NC(C)=O)ccc2O)ccc1=O)Cc1ccccc1N(C)C | 95.2 | 5.57 | 3.56 |  | 36.4 |  |
| CCN(CCCCCCn1nc(-c2cc(Cl)ccc2O)ccc1=O)Cc1ccccc1N(C)C |  | 6.13 | 1.09 |  | 27.3 |  |
| O=c1ccc(-c2ccccc2O)nn1CCCCCCN1CCc2ccccc2C1 |  | 5.59 | 2.58 |  | 21.7 |  |
